Measured values taken from publication PMC8333425, “Discovery of a dual Ras and ARF6 inhibitor from a GPCR endocytosis screen” (Nature Communications, 2021).
Where “and” joins values, the source holds several entries; their conditions need not be identical. Equal values may be shown once. Entries after “also recorded” stand apart in the source; their conditions may differ.

Assays:
H-Ras [1] = molecular target: H-Ras (Homo sapiens, UniProt P01112); assay: In vitro mant-GTP exchange assay, purified H-Ras with purified SOS1; type: biochemical; design: the cDNA of H-Ras (full length) was obtained by RT-PCR of HEK293SL; GST (N); host or cells: E. coli BL21; settings: 50 μM
Protocol: Ras activity was assessed in a 384-well black bottom plate using the mant-GTP exchange factor assay that measures the uptake of the fluorescent nucleotide analog N-methylanthraniloyl-GTP (mant-GTP) into GTPases. For Ras activation, 2X exchange buffer, 1.66 μg of purified pGEX-6P-1-H-Ras or pGEX-6P-1-K-Ras-WT or pGEX-6P-1-K-Ras-Y32A were added per well in presence of DMSO, different concentrations of Rasarfin (as indicated) or 50 µM of compounds 21.4, 21.7, or 21.8. Using the Infinite 200 Pro plate reader (Tecan) with filters set at 360 nm and 440 nm for detecting the excitation and emissions, respectively, and temperature set at 20 °C, 5 readings were recorded every 5 s before the addition of either H2O, 40 mM EDTA or 0.66 μg purified SOS1. The fluorescence of mant-GTP uptake was measured every 30 sec for 30 min and quantified as the delta relative fluorescence units (RFU), which was calculated as the RFU post-addition minus the 5 averaged RFU pre-addition, per condition.

[2] = system: ERK1/2 activation by AT1R; assay: Western blot of AT1R-mediated ERK1/2 phosphorylation; type: cell-based, human; settings: 50 μM
Protocol: HEK293SL cells (10^5 cells per well) were seeded in a poly-L-lysine-coated six-well plate and transiently transfected with 3 μg Flag-AT1R, HA-B2R or HA-β2AR and/or 500 ng Flag-MEK1-WT, Flag-MEK1-DD, Flag-BRAF-WT, Flag-BRAF-V600E, Flag-K-Ras-WT, Flag-K-Ras-G12V, HA-ARF6-WT, or HA-ARF6-T27N. Gαq/11 KO and βarr1/2 KO cells were seeded onto 100 mm dishes at a density of 10^6 cells per dish. Next day, cells were transfected with 3 μg AT1R alone or along with 500 ng of β-arrestin2 using PEI. After 18 h of transfection, cells were detached and re-seeded onto poly-L-lysine coated 12-well plates (~1.5–2 × 10^5cells/well) for subsequent experiments. Forty-eight hours post transfection, in a 37 °C water bath, cells were serum-starved for 30 min, pretreated with DMSO (0.1%) or compound 21/Rasarfin (50 µM or at indicated concentrations) for 30 min, then stimulated or not with the indicated ligand [AngII (1 µM), BK (1 µM), Iso (10 µM) or EGF (100 ng/ml)] at indicated times. Cells were put on ice, washed with PBS and solubilized in 2x laemmli buffer (250 mM Tris–HCl pH 6.8, 2% SDS (w/v), 10% glycerol (v/v), 0.01% bromophenol blue (w/v) and 5% β-mercaptoethanol (v/v)) by heating at 65 °C for 15 min. Lysates were resolved on 10 or 14% SDS-PAGE, transferred to nitrocellulose membranes and immunoblotted for p-ERK1/2, ERK1/2, p-Akt, Akt, HA, Myc, β-actin or FLAG. ImageLab 5.2 software was used to quantify the digital blots as fold of the phosphorylated protein over total protein, which were then normalized as indicated in the figure legends. Uncropped immunoblots are provided in the Source Data file.

AT1R = assay: Endosomal BRET assay of AngII-mediated AT1R internalization (AT1R-RlucII / Endo-rGFP; HTS, validation, concentration-response); type: cell-based, human; settings: 50 μM
Excerpt: We performed a HT campaign in HEK293 cells using the bystander endosomal BRET sensor, which consists of a Renilla luciferase (RlucII)-tagged AT1R and an acceptor renilla GFP (rGFP) anchored to endosomes through an Endofin-FYVE (Endo-rGFP) domain[12]. AngII-mediated trafficking of AT1R to endosomes was screened against commercial libraries of ~115,000 small molecules (Fig. 1a and Supplementary Data 1). Because our assay is based on luminescence and fluorescence, we excluded 6610 compounds that quenched more than 50% of the luciferase or GFP signals. After excluding 5 AT1R antagonists, we conserved hit compounds blocking by more than 40%, as well as those potentiating by more than 100% receptor internalization. From this collection of 943 compounds, a second validation on AT1R internalization was performed using the same BRET assay, as well as on the agonist-mediated B2R internalization, this time using B2R-RlucII and Endo-rGFP. Only compounds that were revalidated on AT1R and affected B2R endocytosis were kept, which included forty hits (20 potentiators and 20 inhibitors) (Fig. 1b and Supplementary Data 2). We focused on inhibitors that were commercially available at the beginning of the project and tested their cell toxicity by microscopy, looking at cells expressing B2R tagged with YFP, which highlights cell contours and potential morphological changes, such as rounding up of cells following treatment with 50 μM of the compounds that may have indicated cell death. None of the inhibitors tested caused abnormal cell morphological changes when cells were treated with compounds as compared to DMSO-treated cells. Inhibitors were also assessed in terms of structure novelty, derivatization potential, and commercial availability of analogs (within 95–98% similarity from Tanimoto metric, Sci-Finder, https://scifinder-n.cas.org), for structure-activity relationship studies (SAR). They were scored 1–5, from best to worst. We excluded compounds with potential nucleophilic reactivity (e.g., Michael addition: compounds 7, 26, and 27), those reported to have biological activities (compounds 8, 20, 25, 30, and 35) and/or showing autofluorescence (compound 26). Compound 19 ranked high, but only had one other molecule with a similar structure available. Although other molecules could be interesting in their own rights as endocytosis inhibitors (e.g., compounds 1, 9, 11, 12, 13, 24, 31, and 37), we focused on compound 21 (Fig. 1c) because not only did it rank high in our analysis, but it was also the only compound with substantially more similar analogs commercially available at the time of these investigations. In the screen and the follow-up validation assay, 21 inhibited more than 50% AT1R internalization and more than 65% B2R internalization (Supplementary Data 2). […] Because β-arrestins are critically involved in GPCR endocytosis and trafficking in cells, we assessed 21’s effects on β-arrestins’ recruitment to AT1R and B2R at the PM using a BRET assay, as well as their trafficking into endosomes by microscopy.
The chemical library used for initial screening was from Chembridge DiverSet™ (60,000 compounds), Maybridge HitFinder™ (16,000 compounds), Maybridge (selected, 16,000 compounds), SPECS (selected, 16000 compounds), Microsource Discovery Spectrum (2000 compounds), Biomol (natural products, 500 compounds), Prestwick (commercialized products, 1120 compounds), SIGMA LopacTM (1280 compounds) and internal collection (synthesized at Université de Montréal-IRIC, ~4000 compounds). Compounds were all assigned an Université de Montréal number (UM) for internal use. Screen was performed at IRIC HTS facility. KINOMEscan™ profiling was serviced by Eurofin/DiscoverX (San Diego, USA).
HEK293SL cells were seeded at a density of 7.5 × 10^5 cells per 100-mm dish and 24 h later, transiently transfected as such. […]

H-Ras [3] = system: H-Ras; design: method as in PMID 27265506; settings: cited from earlier work
MDA-MB-231 cells [4] = assay: Cell proliferation assay (IncuCyte confluence), MDA-MB-231; type: cell-based, human; settings: 10 µM
Protocol: Cell proliferation was measured by a label-free, non-invasive cellular confluence assay using IncuCyte Live-Cell Imaging Systems (Essen Bioscience, Ann Arbor, MI, USA). MDA-MB-231 breast cancer and A549 lung carcinomas cells (1500 cells in 150 μl/well) were seeded overnight on a clear 96-well plate. Twenty-four hours later, the cells were treated with 0.1% DMSO, or different concentrations of Rasarfin (as indicated), or 10 µM of 21.4 or 21.8 for 96 h total. The plate was placed in an XL-3 incubation chamber maintained at 37 °C and the cells were photographed using a ×4 objective, every 3 h for 4 days. Cell confluence was calculated using IncuCyte S3 software (2019A) and cell proliferation was expressed as an increase in the percentage of confluence. Experiments were done in triplicate and repeated three times.

MDA-MB-231 cells [5] = assay: Cell viability assay (MTT), MDA-MB-231; type: cell-based, human; settings: for cell viability (MTT signal): S_Fig12f, listed as Comp 21.4
Protocol: MDA-MB-231 breast cancer cells and A549 lung carcinomas (1500 cells in 150 μl/well) were seeded overnight on a clear 96-well plate. Twenty-four hours later, the cells were treated with 0.1% DMSO, or different concentrations of Rasarfin (as indicated), or 10 µM of 21.4, 21.8 (MDA-MB-231 breast cancer cells) or Doxorubicin for the indicated times at 37 °C. At each time point, 10 μl of 5 mg/ml MTT was added to each well and the plates were incubated for an additional 4 h at 37 °C. The absorbance at 590 nm was measured by plate reader. Experiments were done in triplicate and repeated three times.

Ras = system: Ras; design: method as in PMID 22431598; settings: cited from earlier work

Sequence of H-Ras (Homo sapiens, UniProt P01112) (P01112 whole entry): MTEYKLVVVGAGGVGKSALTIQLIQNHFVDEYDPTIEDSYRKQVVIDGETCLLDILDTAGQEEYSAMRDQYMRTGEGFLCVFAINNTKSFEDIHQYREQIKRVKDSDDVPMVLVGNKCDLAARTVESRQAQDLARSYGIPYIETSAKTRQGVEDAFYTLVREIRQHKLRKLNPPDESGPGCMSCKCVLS

Question: Which “Ras exchange activity, mant-GTP loading into H-Ras with SOS1 (Fig. 8c)” value (H-Ras [1]) does the source give for `CCC(=O)N1CCN(c2ccc(NC(=O)c3cccs3)cc2Cl)CC1` [Compound 21.7] here?
Answer: had no effect

Question: What about the “inhibition of AT1R-mediated ERK1/2 (MAPK) activation (Fig. 8b)” value [2] of the same compound?
Answer: lost their ability to inhibit MAPK

Question: And the “inhibition of AT1R internalization into endosomes (Fig. 8a)” value (AT1R)?
Answer: loss of compounds’ efficacy to inhibit AT1R internalization

Question: For NAV-2729, which “block of H-Ras” value (H-Ras [3]) is on record?
Answer: inefficacious to block H-Ras

Question: For `CC(C)C(=O)N1CCN(c2ccc(NC(=O)c3cc4ccccc4o3)cc2)CC1` [Compound 21.4], which “MDA-MB-231 cell proliferation (confluency)” value (MDA-MB-231 cells [4]) is on record?
Answer: only 21.8, which efficiently inhibits MAPK as well as Rasarfin, inhibited cell proliferation

Question: What about the “Ras exchange activity, mant-GTP loading into H-Ras with SOS1 (Fig. 8c)” value (H-Ras [1]) of the same compound?
Answer: lacks Ras and MAPK inhibitory activities; also recorded: had no effect

Question: What about the “metabolic activity of MDA-MB-231 cells (MTT)” value (MDA-MB-231 cells [5]; 10 µM) of the same compound?
Answer: moderately decreasing the metabolic activity of cancer cells

Question: And the “cell viability (MTT signal)” value (MDA-MB-231 cells [5]; 24h)?
Answer: 0.2634 and 0.244 and 0.2

Question: And the “cell viability (MTT signal)” value (MDA-MB-231 cells [5]; 48h)?
Answer: 0.339 and 0.3215 and 0.2045

Question: And the “inhibition of AT1R-mediated ERK1/2 (MAPK) activation (Fig. 8b)” value [2]?
Answer: lacks Ras and MAPK inhibitory activities

Question: And the “inhibition of AT1R internalization into endosomes (Fig. 8a)” value (AT1R)?
Answer: did not inhibit AT1R internalization

Question: Which “SOS binding to Ras and nucleotide exchange” value (Ras) does the source give for `Cc1[nH]c2cc(Cl)cc(Cl)c2c1CCN` [DCAI, 4,6-dichloro-2-methyl-3-aminoethyl-indole] here?
Answer: blocks SOS binding to Ras but only inhibits the nucleotide exchange catalyzed by SOS
